Measured values taken from US20080233127A1, “IMIDAZOLOPYRIMIDINE ANALOGS AND THEIR USE AS PI3 KINASE AND MTOR INHIBITORS” (Wyeth, priority 2007, published 2008).

Assays:
[1] = biological target: PI3 Kinase; assay: PI3K fluorescence polarization assay; assay type: biochemical; details: 25 μM ATP, diC8-PI(4,5)P2 substrate, 1 hour at 25° C.; read-out: PI3 Kinase Median IC50
Description: Nunc 384 well black polypropylene fluorescent plates are used for PI3K assays. Reactions are quenched by the addition of EDTA to a final concentration of 10 mM. Final reaction volumes are 10 μl. […] Reactions are allowed to proceed for one hour at 25° C. After 1 hour, GST-tagged GRP1 (general receptor for phosphoinositides) PH domain fusion protein is added to a final concentration of 100 nM, and BODIPY-TMRI(1,3,4,5)P4 (Echelon) is also added to a final concentration of 5 nM. Final sample volumes are 25 μl with a final DMSO concentration of 0.8%. Assay Plates are read on Perkin-Elmer Envision plate readers with appropriate filters for Tamra [BODIPY-TMRI(1,3,4,5)P4].

[2] = biological target: T1, human TOR (Homo sapiens, UniProt P42345); assay: mTOR enzyme assay (DELFIA format, purified FLAG-TOR, His6-S6K substrate); assay type: biochemical; details: 100 μM ATP, 1.25 μM His6-S6K, 2 hours at room temperature; read-out: TOR Kinase Median IC50
T1 construct: FLAG

SMILES | IC50 [1] | IC50 [2]
Oc1cncc(-c2nc(N3CCOCC3)c3ncn(C4CCN(Cc5ccc[nH]5)CC4)c3n2)c1 [Compound 39, 5-{6-morpholin-4-yl-9-[1-(1H-pyrrol-2-ylmethyl)piperidin-4-yl]-9H-purin-2-yl}pyridin-3-ol] | 31 nM | 940 nM
Oc1cncc(-c2nc(N3CCOCC3)c3ncn(C4CCN(Cc5ccccc5)CC4)c3n2)c1 [Compound 87, 5-[9-(1-benzylpiperidin-4-yl)-6-morpholin-4-yl-9H-purin-2-yl]pyridin-3-ol] | 87 nM | 550 nM
Oc1cncc(-c2nc(N3CCOCC3)c3ncn(C4CCN(Cc5ccc(Cl)cc5)CC4)c3n2)c1 [Compound 38, 5-{9-[1-(4-chlorobenzyl)piperidin-4-yl]-6-morpholin-4-yl-9H-purin-2-yl}pyridin-3-ol] | – | 160 nM
CCNC(=O)Nc1ccc(-c2nc(N3CCOCC3)c3ncn(C4CCN(Cc5cccnc5)CC4)c3n2)cc1 [Compound 90, 1-ethyl-3-(4-(6-morpholino-9-(1-(pyridin-3-ylmethyl)piperidin-4-yl)-9H-purin-2-yl)phenyl)urea] | 1350 nM | 12 nM
OCc1cccc(-c2nc(N3CCOCC3)c3ncn(C4CCN(Cc5ccco5)CC4)c3n2)c1 [Compound 52, (3-{9-[1-(2-furylmethyl)piperidin-4-yl]-6-morpholin-4-yl-9H-purin-2-yl}phenyl)methanol] | 46 nM | 490 nM
Clc1cc(-c2nc(N3CCOCC3)c3nc[nH]c3n2)ccc1OCc1ccccc1 [Compound 24, 2-(4-Benzyloxy-3-chloro-phenyl)-6-morpholin-4-yl-9H-purine] | 4530 nM | > 20000 nM
OCc1cccc(-c2nc(N3CCOCC3)c3ncn(C4CCN(Cc5ccc(F)nc5)CC4)c3n2)c1 [Compound 61, [3-(9-{1-[(6-fluoropyridin-3-yl)methyl]piperidin-4-yl}-6-morpholin-4-yl-9H-purin-2-yl)phenyl]methanol] | 47 nM | 710 nM
O=[N+]([O-])c1cccc(-c2nc(N3CCOCC3)c3nc[nH]c3n2)c1 [Compound 8, 6-morpholin-4-yl-2-(3-nitrophenyl)-9H-purine] | 8900 nM | –
COCOc1cncc(-c2nc(N3CCOCC3)c3ncn(C4CCN(C(=O)OC(C)(C)C)CC4)c3n2)c1 [Compound 58, tert-butyl-4-{2-[5-(methoxymethoxy)pyridin-3-yl]-6-morpholin-4-yl-9H-purin-9-yl}piperidine-1-carboxylate] | 2090 nM | > 4000 nM
c1nc2c(N3CCOCC3)nc(-c3ccsc3)nc2[nH]1 [Compound 2, 6-morpholin-4-yl-2-(3-thienyl)-9H-purine] | 3290 nM | 3900 nM
c1csc(-c2nc(N3CCOCC3)c3nc[nH]c3n2)c1 [Compound 1, 6-morpholin-4-yl-2-(2-thienyl)-9H-purine] | 724 nM | 2800 nM
Oc1cccc(-c2nc(N3CCOCC3)c3ncn(C4CCN(Cc5ccc(N6CCOCC6)nc5)CC4)c3n2)c1 [Compound 82, 3-(6-morpholin-4-yl-9-{1-[(6-morpholin-4-ylpyridin-3-yl)methyl]piperidin-4-yl}-9H-purin-2-yl)phenol] | 55 nM | 145 nM
FC(F)(F)c1cccc(-c2nc(N3CCOCC3)c3nc[nH]c3n2)c1 [Compound 10, 6-morpholin-4-yl-2-[3-(trifluoromethyl)phenyl]-9H-purine] | 5710 nM | –
c1ccc(Oc2ccccc2-c2nc(N3CCOCC3)c3nc[nH]c3n2)cc1 [Compound 16, 6-morpholin-4-yl-2-(2-phenoxyphenyl)-9H-purine] | 8940 nM | –
COc1cc(COc2cccc(-c3nc(N4CCOCC4)c4nc[nH]c4n3)c2)cc(OC)c1 [Compound 23, 2-[3-(3,5-Dimethoxy-benzyloxy)-phenyl]-6-morpholin-4-yl-9H-purine] | 6200 nM | 16500 nM
OCc1cccc(-c2nc(N3CCOCC3)c3ncn(C4CCN(Cc5ccc(F)cc5)CC4)c3n2)c1 [Compound 46, (3-{9-[1-(4-fluorobenzyl)piperidin-4-yl]-6-morpholin-4-yl-9H-purin-2-yl}phenyl)methanol] | 70 nM | 1700 nM
OCc1cccc(-c2nc(N3CCOCC3)c3ncn(C4CCN(Cc5ccc(Cl)nc5)CC4)c3n2)c1 [Compound 63, [3-(9-{1-[(6-chloropyridin-3-yl)methyl]piperidin-4-yl}-6-morpholin-4-yl-9H-purin-2-yl)phenyl]methanol] | 45 nM | 650 nM
c1ccc(-c2cccc(-c3nc(N4CCOCC4)c4nc[nH]c4n3)c2)cc1 [Compound 14, 2-biphenyl-3-yl-6-morpholin-4-yl-9H-purine] | 4440 nM | –
c1ccc2c(-c3nc(N4CCOCC4)c4nc[nH]c4n3)csc2c1 [Compound 9, 2-(1-benzothien-3-yl)-6-morpholin-4-yl-9H-purine] | 2000 nM | –
OCc1cccc(-c2nc(N3CCOCC3)c3ncn(C4CCN(Cc5ccc(-c6ccncc6)cc5)CC4)c3n2)c1 [Compound 47, (3-{6-morpholin-4-yl-9-[1-(4-pyridin-4-ylbenzyl)piperidin-4-yl]-9H-purin-2-yl}phenyl)methanol] | – | 720 nM
N#Cc1cccc(-c2nc(N3CCOCC3)c3nc[nH]c3n2)c1 [Compound 13, 3-(6-morpholin-4-yl-9H-purin-2-yl)benzonitrile] | 3590 nM | –

SMILES | IC50 [1] | IC50 [2]
OCc1cccc(-c2nc(N3CCOCC3)c3ncn(C4CCN(Cc5ccc(F)c(F)c5)CC4)c3n2)c1 [Compound 62, (3-{9-[1-(3,4-difluorobenzyl)piperidin-4-yl]-6-morpholin-4-yl-9H-purin-2-yl}phenyl)methanol] | 42 nM | 1200 nM
OCc1cccc(-c2nc(N3CCOCC3)c3ncn(C4CCN(Cc5ccccc5)CC4)c3n2)c1 [Compound 51, {3-[9-(1-benzylpiperidin-4-yl)-6-morpholin-4-yl-9H-purin-2-yl]phenyl}methanol] | – | 1000 nM
c1nc2c(N3CCOCC3)nc(-c3ccc4c(c3)OCO4)nc2[nH]1 [Compound 7, 2-(1,3-benzodioxol-5-yl)-6-morpholin-4-yl-9H-purine] | 1230 nM | 8900 nM
Oc1cncc(-c2nc(N3CCOCC3)c3ncn(C4CCNCC4)c3n2)c1 [Compound 36, 5-(6-morpholin-4-yl-9-piperidin-4-yl-9H-purin-2-yl)pyridin-3-ol] | 14 nM | 970 nM
OCc1cccc(-c2nc(N3CCOCC3)c3ncn(C4CCN(Cc5c(F)cc(F)cc5F)CC4)c3n2)c1 [Compound 60, (3-{6-morpholin-4-yl-9-[1-(2,4,6-trifluorobenzyl)piperidin-4-yl]-9H-purin-2-yl}phenyl)methanol] | 194 nM | 3300 nM
c1ccc(-c2nc(N3CCOCC3)c3nc[nH]c3n2)cc1 [Compound 54, 4-(2-phenyl-9H-purin-6-yl)morpholine] | – | 19000 nM
COc1ccc(CN2CCC(n3cnc4c(N5CCOCC5)nc(-c5cccc(CO)c5)nc43)CC2)cn1 [Compound 64, [3-(9-{1-[(6-methoxypyridin-3-yl)methyl]piperidin-4-yl}-6-morpholin-4-yl-9H-purin-2-yl)phenyl]methanol] | 168 nM | > 4000 nM
Cc1ccc(CN2CCC(n3cnc4c(N5CCOCC5)nc(-c5cncc(O)c5)nc43)CC2)cc1 [Compound 40, 5-{9-[1-(4-methylbenzyl)piperidin-4-yl]-6-morpholin-4-yl-9H-purin-2-yl}pyridin-3-ol] | – | 590 nM
Oc1cccc(-c2nc(N3CCOCC3)c3ncn(C4CCN(Cc5cccnc5)CC4)c3n2)c1 [Compound 76, 3-{6-morpholin-4-yl-9-[1-(pyridin-3-ylmethyl)piperidin-4-yl]-9H-purin-2-yl}phenol] | – | 170 nM
Oc1ccccc1-c1nc(N2CCOCC2)c2nc[nH]c2n1 [Compound 3, 2-(6-morpholin-4-yl-9H-purin-2-yl)phenol] | – | 2500 nM
Oc1cccc(-c2nc(N3CCOCC3)c3ncn(C4CCN(Cc5ccccc5)CC4)c3n2)c1 [Compound 28, 3-(9-(1-benzylpiperidin-4-yl)-6-morpholino-9H-purin-2-yl)phenol] | – | 140 nM
c1nc2c(N3CCOCC3)nc(-c3ccoc3)nc2[nH]1 [Compound 19, 2-(3-furyl)-6-morpholin-4-yl-9H-purine] | 4340 nM | –
Cc1cccc(-c2nc(N3CCOCC3)c3nc[nH]c3n2)c1 [Compound 11, 2-(3-methylphenyl)-6-morpholin-4-yl-9H-purine] | 4210 nM | –
CC(C)c1cccc(-c2nc(N3CCOCC3)c3nc[nH]c3n2)c1 [Compound 12, 2-(3-isopropylphenyl)-6-morpholin-4-yl-9H-purine] | 9920 nM | –
Oc1cccc(-c2nc(N3CCOCC3)c3nc[nH]c3n2)c1 [Compound 55, 3-(6-morpholino-9H-purin-2-yl)phenol] | – | 2120 nM
CN(C)C(=O)c1ccc(-c2nc(N3CCOCC3)c3nc[nH]c3n2)cc1 [Compound 17, N,N-dimethyl-4-(6-morpholin-4-yl-9H-purin-2-yl)benzamide] | 5930 nM | –
COc1cccc(-c2nc(N3CCOCC3)c3nc[nH]c3n2)c1 [Compound 53, 4-(2-(3-methoxyphenyl)-9H-purin-6-yl)morpholine] | – | > 20000 nM
CS(=O)(=O)c1ccc(-c2nc(N3CCOCC3)c3nc[nH]c3n2)cc1 [Compound 22, 2-(4-Methanesulfonyl-phenyl)-6-morpholin-4-yl-9H-purine] | 2160 nM | –
Oc1cccc(-c2nc(N3CCOCC3)c3ncn(C4CCN(Cc5ccc(Br)nc5)CC4)c3n2)c1 [Compound 81, 3-(9-{1-[(6-bromopyridin-3-yl)methyl]piperidin-4-yl}-6-morpholin-4-yl-9H-purin-2-yl)phenol] | – | 120 nM
Oc1cccc(-c2nc(N3CCCCC3)c3nc[nH]c3n2)c1 [Compound 21, 3-(6-Piperidin-1-yl-9H-purin-2-yl)-phenol] | 4300 nM | –
OCc1cccc(-c2nc(N3CCOCC3)c3ncn(C4CCN(Cc5ccccc5)CC4)c3n2)c1 [Compound 33, {3-[9-(1-benzylpiperidin-4-yl)-6-morpholin-4-yl-9H-purin-2-yl]phenyl}methanol] | – | 700 nM
